Assay results reported in US12448383B2, “Compounds and methods for treatment of viral infections” (priority 2022, dated 2025).

Assays:
[1] = tested on: SARS Coronavirus 2 recombinant with NanoLuc (SARS-CoV2-NLuc) in A549-hACE2 cells; assay: organism not typed; assay type: cell-based; conditions: 48 h; read-out: SARS-CoV2 EC50
[2] = tested on: Respiratory syncytial virus recombinant with luciferase (RSV-Luc5) in HEp-2 cells; assay: microbe, parasite or virus in culture; assay type: cell-based; conditions: human respiratory syncytial virus, HEp-2, 72 h, read-out: RSV Hep2 EC50
[3] = Plasma stability; assay type: in vitro ADME; design: unit not given here; conditions: 37° C., 2 μM substrate
Summary of the method: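 LC-MS (Q-Exactive, 5 ppm tolerance, 0.1% formic acid water/acetonitrile gradient) quantified compound in quenched aliquots. Aliquots were taken at 0.05, 0.5, 1, 2, 3 and 4 hr and quenched with internal-standard solution, and supernatants were diluted with water after centrifugation.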

[4] = tested on: Respiratory syncytial virus recombinant with luciferase (RSV-Luc5) in Normal Human Bronchial Epithelial (NHBE) cells; assay: microbe, parasite or virus in culture; assay type: cell-based; conditions: 72 h, read-out: RSV NHBE EC50
[5] = tested on: Caco-2 cells (clone C2BBe1); assay: CACO-2 permeability; assay type: in vitro ADME; design: unit not given here; conditions: for DM Caco2 A to B: apical to basolateral, donor pH 6.5, receiver pH 7.4; for DM Caco2 B to A: basolateral to apical
Summary of the method: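 A-to-B and B-to-A flux measured by LC-MS/MS from receiver samples taken at 1 and 2 h, with donor sampled at 0 and 2 h and recovery checked. Buffers: pH 6.5 HBSS with 200 μM BNPP on the donor side, pH 7.4 with BSA on the receiver side. Monolayers were 21-day cultures, TEER-verified, in duplicate wells.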

[6] = CC50 MT4 cytotoxicity (Cell-Titer Glo); assay type: cell-based; conditions: human
Summary of the method: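 CC50 values are the concentrations cutting viability by 50%, fitted by non-linear regression against untreated (100%) and 2 μM puromycin (0%) controls. Cell-Titer Glo luminescence measured after 4-5 days at 37° C exposure of uninfected MT-4 and HEp-2 cells to 3-fold dilutions spanning 15 nM to 100,000 nM.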

[7] = GI S9 stability - no PMSF; assay type: in vitro ADME; conditions: pH 7.4; human intestinal S9, PMSF-free; read-out: GIS9-HUMAN-NoPMSF T1/2
Summary of the method: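 Stability was assessed by Q-Exactive LC-MS peak area ratios against internal standard, tracking loss of parent and appearance of nucleoside metabolite Reference Compound A. Incubations used 2 μM compound in 1 mg/mL intestinal S9 without PMSF (PBS, pH 7.4), with six samples taken over 120 min.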

With `N#C[C@@]1(c2ccc3c(N)ncnn23)O[C@H](COC(=O)OCC23CCC(CC2)C3)[C@@H](O)[C@H]1O` [Compound 52, ((2R,3S,4R,5R)-5-(4-aminopyrrolo[2,1-f][1,2,4]triazin-7-yl)-5-cyano-3,4-dihydroxytetrahydrofuran-2-yl)methyl (bicyclo[2.2.1]heptan-1-ylmethyl) carbonate] the EC50 [1] was 0.574 µM, the EC50 [2] was 0.1 µM and the “STA Human Plasma 37” value [3] was 85. For the same compound, the EC50 [4] was 0.919 µM, the “DM Caco2 A to B” value [5] was 6.95 and the “DM Caco2 B to A” value [5] was 13.04. It also gave a CC50 [6] of 38.8 µM and a half-life at 2 µM [7] of 39.3 s.
In the case of `N#C[C@@]1(c2ccc3c(N)ncnn23)O[C@H](COC(=O)OCC23CC(C2)C3)[C@@H](O)[C@H]1O` [Compound 72, ((2R,3S,4R,5R)-5-(4-aminopyrrolo[2,1-f][1,2,4]triazin-7-yl)-5-cyano-3,4-dihydroxytetrahydrofuran-2-yl)methyl (bicyclo[1.1.1]pentan-1-ylmethyl) carbonate], the EC50 [1] is reported as 1.13 µM, the EC50 [2] is reported as 0.779 µM and the “STA Human Plasma 37” value [3] is reported as 31.1. The EC50 [4] was 1.82 µM, the “DM Caco2 A to B” value [5] was 2.52 and the “DM Caco2 B to A” value [5] was 10.69. The CC50 [6] was > 50 µM and the half-life at 2 µM [7] was 37.4 s.
In the case of `CC1(C)CC(OC(=O)OC[C@H]2O[C@@](C#N)(c3ccc4c(N)ncnn34)[C@H](O)[C@@H]2O)C1` [Compound 31, ((2R,3S,4R,5R)-5-(4-aminopyrrolo[2,1-f][1,2,4]triazin-7-yl)-5-cyano-3,4-dihydroxytetrahydrofuran-2-yl)methyl (3,3-dimethylcyclobutyl) carbonate], the EC50 [1] is reported as 1.08 µM, the EC50 [2] is reported as 0.322 µM and the “STA Human Plasma 37” value [3] is reported as 32.4. For the same compound, the EC50 [4] was 0.803 µM, the “DM Caco2 A to B” value [5] was 0.68 and the “DM Caco2 B to A” value [5] was 13. The CC50 [6] was > 50 µM and the half-life at 2 µM [7] was 51.4 s.
For `CC[C@H](C)OC(=O)OC[C@H]1O[C@@](C#N)(c2ccc3c(N)ncnn23)[C@H](O)[C@@H]1O` [Compound 90, ((2R,3S,4R,5R)-5-(4-aminopyrrolo[2,1-f][1,2,4]triazin-7-yl)-5-cyano-3,4-dihydroxytetrahydrofuran-2-yl)methyl ((S)-sec-butyl) carbonate], the EC50 [1] was 1.84 µM, the EC50 [2] was 0.249 µM and the “STA Human Plasma 37” value [3] was 169.9. The EC50 [4] was 0.18 µM, the “DM Caco2 A to B” value [5] was 0.9 and the “DM Caco2 B to A” value [5] was 7.41. For the same compound, the CC50 [6] was > 50 µM and the half-life at 2 µM [7] was 35.5 s.
With `N#C[C@@]1(c2ccc3c(N)ncnn23)O[C@H](COC(=O)OC2CCC(F)(F)CC2)[C@@H](O)[C@H]1O` [Compound 84, ((2R,3S,4R,5R)-5-(4-aminopyrrolo[2,1-f][1,2,4]triazin-7-yl)-5-cyano-3,4-dihydroxytetrahydrofuran-2-yl)methyl (4,4-difluorocyclohexyl) carbonate] the EC50 [1] was 1.54 µM, the EC50 [2] was 0.311 µM and the “STA Human Plasma 37” value [3] was 327.2. For the same compound, the EC50 [4] was 0.205 µM, the “DM Caco2 A to B” value [5] was 0.27 and the “DM Caco2 B to A” value [5] was 6.99. The CC50 [6] was > 50 µM and the half-life at 2 µM [7] was 57.3 s.
In the case of `CC1(OC(=O)OC[C@H]2O[C@@](C#N)(c3ccc4c(N)ncnn34)[C@H](O)[C@@H]2O)CCCC1` [Compound 56, ((2R,3S,4R,5R)-5-(4-aminopyrrolo[2,1-f][1,2,4]triazin-7-yl)-5-cyano-3,4-dihydroxytetrahydrofuran-2-yl)methyl (1-methylcyclopentyl) carbonate], the EC50 [1] is reported as 2.52 µM, the EC50 [2] is reported as 1.26 µM and the “STA Human Plasma 37” value [3] is reported as 77.644. The EC50 [4] was 1.21 µM, the “DM Caco2 A to B” value [5] was 0.35 and the “DM Caco2 B to A” value [5] was 1.83. For the same compound, the CC50 [6] was > 50 µM and the half-life at 2 µM [7] was 990 s.
In the case of `N#C[C@@]1(c2ccc3c(N)ncnn23)O[C@H](COC(=O)OCc2ncccn2)[C@@H](O)[C@H]1O` [Compound 91, ((2R,3S,4R,5R)-5-(4-aminopyrrolo[2,1-f][1,2,4]triazin-7-yl)-5-cyano-3,4-dihydroxytetrahydrofuran-2-yl)methyl (pyrimidin-2-ylmethyl) carbonate], the EC50 [1] is reported as 14.7 µM, the EC50 [2] is reported as 3.64 µM and the “STA Human Plasma 37” value [3] is reported as 285. The EC50 [4] was 5.84 µM, the “DM Caco2 A to B” value [5] was 0.02 and the “DM Caco2 B to A” value [5] was 0.5. For the same compound, the CC50 [6] was > 50 µM and the half-life at 2 µM [7] was 2520 s.
In the case of `N#C[C@@]1(c2ccc3c(N)ncnn23)O[C@H](COC(=O)OC2CC3(CCC3)C2)[C@@H](O)[C@H]1O` [Compound 29, ((2R,3S,4R,5R)-5-(4-aminopyrrolo[2,1-f][1,2,4]triazin-7-yl)-5-cyano-3,4-dihydroxytetrahydrofuran-2-yl)methyl spiro[3.3]heptan-2-yl carbonate], the EC50 [1] is reported as 0.835 µM, the EC50 [2] is reported as 0.109 µM and the “STA Human Plasma 37” value [3] is reported as 139. The EC50 [4] was 1.3 µM, the “DM Caco2 A to B” value [5] was 1.91 and the “DM Caco2 B to A” value [5] was 12.29. The CC50 [6] was > 50 µM and the half-life at 2 µM [7] was 37 s.
With `N#C[C@@]1(c2ccc3c(N)ncnn23)O[C@H](COC(=O)OCCN2CCOCC2)[C@@H](O)[C@H]1O` [Compound 92, ((2R,3S,4R,5R)-5-(4-aminopyrrolo[2,1-f][1,2,4]triazin-7-yl)-5-cyano-3,4-dihydroxytetrahydrofuran-2-yl)methyl (2-morpholinoethyl) carbonate] the EC50 [1] was 5.63 µM, the EC50 [2] was 1.8 µM and the “STA Human Plasma 37” value [3] was 139.9. For the same compound, the EC50 [4] was 3.04 µM, the “DM Caco2 A to B” value [5] was 0.07 and the “DM Caco2 B to A” value [5] was 0.48. For the same compound, the CC50 [6] was > 50 µM and the half-life at 2 µM [7] was 14300 s.
For `C[C@@H](OC(=O)OC[C@H]1O[C@@](C#N)(c2ccc3c(N)ncnn23)[C@H](O)[C@@H]1O)c1ccccc1` [Compound 87, ((2R,3S,4R,5R)-5-(4-aminopyrrolo[2,1-f][1,2,4]triazin-7-yl)-5-cyano-3,4-dihydroxytetrahydrofuran-2-yl)methyl ((R)-1-phenylethyl) carbonate], the EC50 [1] was 1.05 µM, the EC50 [2] was 0.345 µM and the “STA Human Plasma 37” value [3] was 28.7. The EC50 [4] was 0.559 µM, the “DM Caco2 A to B” value [5] was 1.79 and the “DM Caco2 B to A” value [5] was 10.98. The CC50 [6] was > 50 µM and the half-life at 2 µM [7] was 74.9 s.
For `N#C[C@@]1(c2ccc3c(N)ncnn23)O[C@H](COC(=O)OCC2CCC2)[C@@H](O)[C@H]1O` [Compound 53, ((2R,3S,4R,5R)-5-(4-aminopyrrolo[2,1-f][1,2,4]triazin-7-yl)-5-cyano-3,4-dihydroxytetrahydrofuran-2-yl)methyl (cyclobutylmethyl) carbonate], the EC50 [1] was 0.662 µM, the EC50 [2] was 0.098 µM and the “STA Human Plasma 37” value [3] was 13. The EC50 [4] was 0.833 µM, the “DM Caco2 A to B” value [5] was 2.34 and the “DM Caco2 B to A” value [5] was 10.58. The CC50 [6] was > 50 µM and the half-life at 2 µM [7] was 38.2 s.
With `CCC(C)(C)OC(=O)OC[C@H]1O[C@@](C#N)(c2ccc3c(N)ncnn23)[C@H](O)[C@@H]1O` [Compound 70, ((2R,3S,4R,5R)-5-(4-aminopyrrolo[2,1-f][1,2,4]triazin-7-yl)-5-cyano-3,4-dihydroxytetrahydrofuran-2-yl)methyl tert-pentyl carbonate] the EC50 [1] was 2.81 µM, the EC50 [2] was 1.72 µM and the “STA Human Plasma 37” value [3] was 1399.3. For the same compound, the EC50 [4] was 2.18 µM, the “DM Caco2 A to B” value [5] was 0.88 and the “DM Caco2 B to A” value [5] was 6.91. The CC50 [6] was > 50 µM and the half-life at 2 µM [7] was 4380 s.
In the case of `C[C@H](OC(=O)OC[C@H]1O[C@@](C#N)(c2ccc3c(N)ncnn23)[C@H](O)[C@@H]1O)c1ccccc1` [Compound 88, ((2R,3S,4R,5R)-5-(4-aminopyrrolo[2,1-f][1,2,4]triazin-7-yl)-5-cyano-3,4-dihydroxytetrahydrofuran-2-yl)methyl ((S)-1-phenylethyl) carbonate], the EC50 [1] is reported as 1.63 µM, the EC50 [2] is reported as 0.382 µM and the “STA Human Plasma 37” value [3] is reported as 1584. For the same compound, the EC50 [4] was 0.0702 µM, the “DM Caco2 A to B” value [5] was 2.72 and the “DM Caco2 B to A” value [5] was 12.82. For the same compound, the CC50 [6] was > 50 µM and the half-life at 2 µM [7] was 295 s.
In the case of `N#C[C@@]1(c2ccc3c(N)ncnn23)O[C@H](COC(=O)OC2CCCCC2)[C@@H](O)[C@H]1O` [Compound 35, ((2R,3S,4R,5R)-5-(4-aminopyrrolo[2,1-f][1,2,4]triazin-7-yl)-5-cyano-3,4-dihydroxytetrahydrofuran-2-yl)methyl cyclohexyl carbonate], the EC50 [1] is reported as 1.91 µM, the EC50 [2] is reported as 0.651 µM and the “STA Human Plasma 37” value [3] is reported as 139.6. The EC50 [4] was 1.01 µM, the “DM Caco2 A to B” value [5] was 0.95 and the “DM Caco2 B to A” value [5] was 10.64. The CC50 [6] was > 50 µM and the half-life at 2 µM [7] was 35.6 s.
In the case of `N#C[C@@]1(c2ccc3c(N)ncnn23)O[C@H](COC(=O)OC2CC(F)(F)C2)[C@@H](O)[C@H]1O` [Compound 73, ((2R,3S,4R,5R)-5-(4-aminopyrrolo[2,1-f][1,2,4]triazin-7-yl)-5-cyano-3,4-dihydroxytetrahydrofuran-2-yl)methyl (3,3-difluorocyclobutyl) carbonate], the EC50 [1] is reported as 1.9 µM, the EC50 [2] is reported as 0.206 µM and the “STA Human Plasma 37” value [3] is reported as 70. For the same compound, the EC50 [4] was 1.1 µM, the “DM Caco2 A to B” value [5] was 0.48 and the “DM Caco2 B to A” value [5] was 4.69. For the same compound, the CC50 [6] was > 50 µM and the half-life at 2 µM [7] was 35.3 s.
